The results in this text go back to US8546429B2, “1,2,3-trisubstituted aryl and heteroaryl derivatives as modulators of metabolism and the prophylaxis and treatment of disorders related thereto” (Arena Pharmaceuticals, Inc., priority 2003, dated 2013).

The EC50 is the midpoint of the concentration-response curve.

The target of assay [1] is T1, RUP3 (Homo sapiens, UniProt Q8TDV5).
T1 construct: expressed in transfected cells; host or cells: melanophores, electroporated
T1 sequence (Q8TDV5 1-335): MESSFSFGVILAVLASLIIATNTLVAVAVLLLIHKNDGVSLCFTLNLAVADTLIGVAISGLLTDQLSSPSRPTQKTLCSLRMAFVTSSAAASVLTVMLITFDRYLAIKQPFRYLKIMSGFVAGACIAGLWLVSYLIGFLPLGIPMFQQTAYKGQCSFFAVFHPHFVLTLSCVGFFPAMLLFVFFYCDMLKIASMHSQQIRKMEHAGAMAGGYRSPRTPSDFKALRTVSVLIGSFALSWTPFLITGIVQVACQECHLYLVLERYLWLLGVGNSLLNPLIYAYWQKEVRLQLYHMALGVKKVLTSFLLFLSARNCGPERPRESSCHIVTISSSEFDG
Nature of the assay: RUP3 dose responses in melanophores. The format is cell-based. Conditions: melanophores transfected with RUP3 expression vector; Table 8. How it is done: Melanophores are maintained in culture as reported by Potenza, M. N. and Lerner, M. R., in Pigment Cell Research, Vol. 5, 372-378, 1992 and transfected with the RUP3 expression vector (pCMV) using electroporation. Following electroporation, the transfected cells are plated into 96 well plates for the assay. The cells are then allowed to grow for 48 hours in order to both recover from the electroporation procedure and attain maximal receptor expression levels.
On the assay day, the growth medium on the cells is replaced with serum-free buffer containing 10 nM melatonin. The melatonin acts via an endogenous Gi-coupled GPCR in the melanophores to lower intracellular cAMP levels. In response to lowered cAMP levels, the melanophores translocate their pigment to the center of the cell. The net effect of this is a significant decrease in the absorbance reading of the cell monolayer in the well, measured at […].
After a 1-hour incubation in melatonin, the cells become completely pigment-aggregated. At this point a baseline absorbance reading is collected. Serial dilutions of test compounds are then added to the plate and compounds that stimulate RUP3 produce increases in intracellular cAMP levels. In response to these increased cAMP levels, the melanophores translocate their pigment back into the cell periphery. After one hour, stimulated cells are fully pigment-dispersed. The cell monolayer in the dispersed state absorbs much more light in the 600-650 nm range. The measured increase in absorbance compared to the baseline reading allows one to quantitate the degree of receptor stimulation and plot a dose-response curve.
The compounds in the above examples were screened using the melanophore assay.

Assay [2] deals with T2, RUP3 (Mesocricetus auratus, UniProt A0A1U8CD06).
T2 construct: host or cells: HIT-T15 hamster insulin-producing cells
T2 sequence (A0A1U8CD06 1-334): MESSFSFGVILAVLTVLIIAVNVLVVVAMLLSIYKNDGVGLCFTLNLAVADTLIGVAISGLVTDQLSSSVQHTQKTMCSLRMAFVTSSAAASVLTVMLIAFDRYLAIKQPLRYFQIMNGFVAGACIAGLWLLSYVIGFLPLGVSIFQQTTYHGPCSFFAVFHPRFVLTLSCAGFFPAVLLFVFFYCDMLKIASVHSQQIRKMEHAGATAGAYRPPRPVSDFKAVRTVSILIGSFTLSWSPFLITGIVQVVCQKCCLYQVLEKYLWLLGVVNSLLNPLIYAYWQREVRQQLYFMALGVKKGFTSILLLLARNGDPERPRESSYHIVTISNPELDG
Nature of the assay: Stimulation of cAMP in HIT-T15 cells (cAMP Flashplate Assay). It counts as cell-based, hamster. Conditions: Table 6. The method, then:
HIT-T15 (ATCC CRL#1777) is an immortalized hamster insulin-producing cell line. These cells express RUP3 and therefore can be used to assess the ability of RUP3 ligands to stimulate or inhibit cAMP accumulation via its endogenously expressed receptor. In this assay, cells are grown to 80% confluence and then distributed into a 96-well Flashplate (50,000 cells/well) for detection of cAMP via a “cAMP Flashplate Assay” (NEN, Cat #SMP004). Briefly, cells are placed into anti-cAMP antibody-coated wells that contain either vehicle, the test ligand(s) at a concentration of interest, or 1 uM forskolin. The latter is a direct activator of adenylyl cyclase and serves as a positive control for stimulation of cAMP in HIT-T15 cells. All conditions are tested in triplicate. After a 1 hour incubation to allow for stimulation of cAMP, a Detection Mix containing ^125I-cAMP is added to each well and the plate is allowed to incubate for another 1 hour. The wells are then aspirated to remove unbound ^125I-cAMP. Bound ^125I-cAMP is detected using a Wallac Microbeta Counter. The amount of cAMP in each sample is determined by comparison to a standard curve, obtained by placing known concentrations of cAMP in some wells on the plate.
A number of the compounds disclosed herein were screened using the above described assay.

In assay [3] the test system is Male Sprague Dawley rats. Nature of the assay: Oral glucose tolerance test (oGTT) in rats. It counts as in vivo, rat. Conditions: for % inhibition of glucose excursion: mean of six rats, dextrose 2 g/kg oral challenge; for effect on blood glucose after challenge with glucose: rats, p.o., oGTT. The method, then: Male Sprague Dawley rats weighing approximately 200 g-250 g were fasted for 15 hours and randomly grouped (n=6) to receive a RUP3 agonist (Compounds A78, A88 or A118) at 3, 10 or 30 mg/kg. Compounds were delivered orally via a gavage needle (p.o., volume 3 ml/kg). At time 0, levels of blood glucose were assessed using a glucometer (Elite XL, Bayer), and rats were administered either vehicle (20% hydroxypropyl-beta-cyclodextrin) or test compound. Thirty minutes after administration of test compound, levels of blood glucose were again assessed, and rats were administered dextrose orally at a dose of 2 g/kg. Blood glucose measurements were then taken 30 min, 60 min, and 120 min after this time.

For `CS(=O)(=O)c1ccc(Nc2ncnc(OC3CCN(C(=O)c4cccnc4)CC3)c2[N+](=O)[O-])cc1` [Compound A24, {4-[6-(4-Methanesulfonyl-phenylamino)-5-nitro-pyrimidin-4-yloxy]-piperidin-1-yl}-pyridin-3-yl-methanone], the EC50 in assay [1] came out at 185 nM. `CC(C)(C)OC(=O)N1CCC(Oc2ncnc(Nc3ccc(S(C)(=O)=O)cc3)c2C#N)CC1` [Compound A35, 4-[5-Cyano-6-(4-methanesulfonyl-phenylamino)-pyrimidin-4-yloxy]-piperidine-1-carboxylic acid tert-butyl ester]: in assay [2], the response was half-maximal at 59 nM (EC50). Take `Cc1c(OC2CCN(C(=O)OC(C)C)CC2)ccnc1Nc1ccc(S(C)(=O)=O)cc1F` [Compound A118, 4-[2-(2-Fluoro-4-methanesulfonyl-phenylamino)-3-methyl-pyridin-4-yloxy]-piperidine-1-carboxylic acid isopropyl ester]: the “% inhibition of glucose excursion” value in assay [3] (30 mg/kg p.o.) is 43%, (30). Further, in assay [3], the “effect on blood glucose after challenge with glucose” value (shortened to “effect on blood glucose”) was “lowered blood glucose”. Compound `CS(=O)(=O)c1ccc(Nc2ncnc(OC3CCN(S(C)(=O)=O)CC3)c2[N+](=O)[O-])cc1` [Compound A27, (4-Methanesulfonyl-phenyl)-[6-(1-methanesulfonyl-piperidin-4-yloxy)-5-nitro-pyrimidin-4-yl]-amine] returned an EC50 in assay [1] of 76.5 nM. Regarding `CC(C)OC(=O)N1CCC(Oc2ncnc(Nc3ccc(S(C)(=O)=O)cc3F)c2C#N)CC1` [Compound A78, 4-[5-Cyano-6-(2-fluoro-4-methanesulfonyl-phenylamino)-pyrimidin-4-yloxy]-piperidine-1-carboxylic acid isopropyl ester], the “% inhibition of glucose excursion” value in assay [3] (10 mg/kg p.o.) was 39%, (10). In assay [3], the “effect on blood glucose” value is reported as “lowered blood glucose”. As to `CC(C)(C)C(=O)CN1CCC(Oc2ncnc(Nc3ccc(S(C)(=O)=O)cc3)c2[N+](=O)[O-])CC1` [Compound A11, 1-{4-[6-(4-Methanesulfonyl-phenylamino)-5-nitro-pyrimidin-4-yloxy]-piperidin-1-yl}-3,3-dimethyl-butan-2-one], the EC50 in assay [1] turned out to be 86 nM. On to `Cc1nc(Cl)ccc1Nc1ncnc(OC2CCN(C(=O)OC(C)C)CC2)c1C` [Compound A90, 4-[6-(6-Chloro-2-methyl-pyridin-3-ylamino)-5-methyl-pyrimidin-4-yloxy]-piperidine-1-carboxylic acid isopropyl ester], for which, in assay [1], the midpoint of the response, the EC50, lay at 52 nM.

In turn, `CC(C)(C)OC(=O)N1CCC(Oc2ncnc(Nc3ccc(S(C)(=O)=O)cc3F)c2[N+](=O)[O-])CC1` [Compound A34, 4-[6-(2-Fluoro-4-methanesulfonyl-phenylamino)-5-nitro-pyrimidin-4-yloxy]-piperidine-1-carboxylic acid tert-butyl ester] came in with an EC50 in assay [2] of 27 nM. Take `Cc1c(Nc2cc(F)c(C#N)cc2F)ncnc1OC1CCN(C(=O)OC(C)C)CC1` [Compound A88, 4-[6-(4-Cyano-2,5-difluoro-phenylamino)-5-methyl-pyrimidin-4-yloxy]-piperidine-1-carboxylic acid isopropyl ester]: the “% inhibition of glucose excursion” value in assay [3] (30 mg/kg p.o.) is recorded as 38%, (30). Besides, in assay [3], the “effect on blood glucose” value was “lowered blood glucose”. Compound `CC(C)(C)OC(=O)N1CCC(Oc2ncnc(Nc3ccc(S(C)(=O)=O)cc3)c2[N+](=O)[O-])CC1` [Compound A1, 4-[6-(4-Methanesulfonyl-phenylamino)-5-nitro-pyrimidin-4-yloxy]-piperidine-1-carboxylic acid tert-butyl ester] showed an EC50 in assay [2] of 20 nM. Regarding `CC(C)(C)OC(=O)N1CCC(CCOc2ncnc(Nc3ccc(S(C)(=O)=O)cc3)c2[N+](=O)[O-])CC1` [Compound A14, 4-{2-[6-(4-Methanesulfonyl-phenylamino)-5-nitro-pyrimidin-4-yloxy]-ethyl}-piperidine-1-carboxylic acid tert-butyl ester], in assay [1], a half-maximal response (EC50) required 242 nM. `CC(C)OC(=O)N1CCC(Oc2ncnc(Nc3ccc(S(C)(=O)=O)cc3)c2C#N)CC1` [Compound A39, 4-[5-Cyano-6-(4-methanesulfonyl-phenylamino)-pyrimidin-4-yloxy]-piperidine-1-carboxylic acid isopropyl ester]: the EC50 in assay [1] came out at 16.9 nM. On the same count and under the same terms, under `Cc1nc(C)c(S(=O)(=O)N2CCC(Oc3ncnc(Nc4ccc(S(C)(=O)=O)cc4)c3[N+](=O)[O-])CC2)s1` [Compound A32, {6-[1-(2,4-Dimethyl-thiazole-5-sulfonyl)-piperidin-4-yloxy]-5-nitro-pyrimidin-4-yl}-(4-methanesulfonyl-phenyl)-amine] stands 43.5 nM; under `Cc1c(Oc2ccc(CCn3ccnc3)cc2F)ncnc1OC1CCN(C(=O)OC(C)C)CC1` [Compound C168, 4-{6-[2-Fluoro-4-(2-imidazol-1-yl-ethyl)-phenoxy]-5-methyl-pyrimidin-4-yloxy}-piperidine-1-carboxylic acid isopropyl ester], 28.3 nM.

Regarding `CC(C)(C)C(=O)N1CCC(Nc2ncnc(Nc3ccc(S(C)(=O)=O)cc3)c2[N+](=O)[O-])CC1` [Compound B4, 1-{4-[6-(4-Methanesulfonyl-phenylamino)-5-nitro-pyrimidin-4-ylamino]-piperidin-1-yl}-2,2-dimethyl-propan-1-one], in assay [1], the midpoint of the response, the EC50, lay at 300 nM.
